Our source for the EC50, Emax and CRF1/CRF2 ratio values is patent US12679878B2, “CRF2 receptor agonists and their use in therapy” (SANOFI, priority 2020, dated 2026).

The target of assay [1] is T1, human CRF2α receptor (Homo sapiens, UniProt Q13324).
T1 construct: expressed in transfected cells; host or cells: TeloHEAC
T1 sequence (Q13324 1-411): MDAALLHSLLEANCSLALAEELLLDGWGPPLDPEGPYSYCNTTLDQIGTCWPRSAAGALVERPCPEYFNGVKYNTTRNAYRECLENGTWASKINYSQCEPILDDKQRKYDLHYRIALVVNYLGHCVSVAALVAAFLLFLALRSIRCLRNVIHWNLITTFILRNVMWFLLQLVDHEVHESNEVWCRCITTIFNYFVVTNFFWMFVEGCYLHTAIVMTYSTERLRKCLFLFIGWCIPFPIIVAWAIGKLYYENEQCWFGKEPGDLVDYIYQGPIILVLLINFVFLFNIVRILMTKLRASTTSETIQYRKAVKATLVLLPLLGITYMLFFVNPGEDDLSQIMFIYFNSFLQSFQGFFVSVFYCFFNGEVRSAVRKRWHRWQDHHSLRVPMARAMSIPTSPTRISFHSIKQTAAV
Put plainly: cAMP agonism at human CRF2α receptor in TeloHEAC cells, FA modified peptides (Example 19.9). The assay is classed as cell-based. The note with it: 0% HSA, relative to urocortin 2. The gist of the method:
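Efficacy and EC50 are referenced to 100 nM urocortin 2 as 100%, with cAMP measured as the 665/620 nm HTRF ratio after 1 h at room temperature. Compounds (0.5 mM DMSO stock, 16 twofold dilutions) acted 30 min at 37 °C on CRF2α-expressing TeloHEAC cells, buffer containing IBMX and 0% or 0.2% HSA.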

For assay [2], the target named is T2, CRF1R receptor (Homo sapiens, UniProt P34998).
T2 construct: host or cells: CHO-K1 clone 2
T2 sequence (P34998 24-415): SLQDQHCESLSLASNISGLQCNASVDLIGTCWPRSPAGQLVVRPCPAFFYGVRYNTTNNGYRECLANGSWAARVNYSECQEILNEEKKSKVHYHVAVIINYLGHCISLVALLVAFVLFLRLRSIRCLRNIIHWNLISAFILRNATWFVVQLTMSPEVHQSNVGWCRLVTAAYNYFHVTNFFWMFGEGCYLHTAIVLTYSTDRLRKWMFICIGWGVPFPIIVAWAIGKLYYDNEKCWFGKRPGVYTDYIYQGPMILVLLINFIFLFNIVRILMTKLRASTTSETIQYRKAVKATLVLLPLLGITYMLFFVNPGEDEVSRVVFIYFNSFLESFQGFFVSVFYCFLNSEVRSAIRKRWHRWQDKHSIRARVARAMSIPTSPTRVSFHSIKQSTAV
Briefly: cAMP activity at anti-target CRF1R, CHO-K1 cell line clone 2 (Example 19.10). The assay is classed as cell-based. The conditions noted are these: for EC50: 0% HSA, read-out: EC50 [nM] 0% HSA; for EC50 / Emax: CRF1R CHO-K1 clone 2; for Emax: 100% = Sauvagine at 100 nM; for CRF1/CRF2 ratio: ratio of CRF1 EC50 to CRF2 EC50. The gist of the method:
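The cAMP read-out used the same protocol as the previous assay, except that Sauvagine at 100 nM set the 100% activation control. Cells were CHO-K1 clone 2 overexpressing CRF1R, cultured in F12 medium with 10% FBS and G418 and stored frozen until use.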

Usually EC50 stands for the concentration that produces a half-maximal response. What is called Emax is the greatest response seen or fitted, relative to the assay's reference.

Starred links: 1 amine or outer side, 2 acyl side, 3 side chain; linkers in the order of their positions; H or OH if unused. Non-standard residues stand in square brackets, D forms with d. Residues, ends and D or L forms follow the SMILES beside them. Groups on a side chain read outwards from the residue. *: point of attachment. C16 diacid = O=C(O)CCCCCCCCCCCCCCC(=O)*; γGlu = O=C(O)[C@H](CCC(=O)[*:2])N[*:1]; Palmitoyl = CCCCCCCCCCCCCCCC(=O)*; AEEA = NCCOCCOCC(=O)O; Aib = CC(C)(N)C(=O)O

Compound `CC[C@H](C)[C@H](N)C(=O)N[C@H](C(=O)N[C@@H](CC(C)C)C(=O)N[C@@H](CO)C(=O)N[C@@H](CC(C)C)C(=O)N[C@@H](CC(=O)O)C(=O)N[C@@H](C(=O)N1CCC[C@H]1C(=O)N[C@H](C(=O)NCC(=O)N[C@@H](CC(C)C)C(=O)N[C@@H](CCCCNC(=O)COCCOCCNC(=O)COCCOCCNC(=O)CC[C@H](NC(=O)CCCCCCCCCCCCCCC(=O)O)C(=O)O)C(=O)N[C@@H](CCC(N)=O)C(=O)N[C@H](C(=O)N[C@@H](CC(C)C)C(=O)N[C@@H](CC(C)C)C(=O)N[C@@H](CCCCN)C(=O)N[C@@H](CCC(N)=O)C(=O)N[C@@H](CCC(=O)O)C(=O)N[C@@H](CCCNC(=N)N)C(=O)N[C@@H](CCC(N)=O)C(=O)N[C@@H](CCCCN)C(=O)N[C@@H](CCCCN)C(=O)NC(C)(C)C(=O)N[C@@H](CCCNC(=N)N)C(=O)N[C@@H](CCC(=O)O)C(=O)N[C@@H](CCC(N)=O)C(=O)N[C@@H](C)C(=O)N[C@@H](CCC(=O)O)C(=O)N[C@H](C(=O)N[C@@H](CC(N)=O)C(=O)N[C@@H](CCCCN)C(=O)N[C@@H](CCC(N)=O)C(=O)N[C@H](C(=O)N[C@@H](CC(C)C)C(=O)N[C@@H](C)C(=O)N[C@@H](CCC(N)=O)C(=O)N[C@H](C(N)=O)C(C)C)[C@@H](C)CC)[C@@H](C)O)[C@@H](C)CC)[C@@H](C)CC)C(C)C)C(C)C` [compound 202] (H-IVLSLD[dV]PIGLK([AEEA-AEEA-γGlu-C16 diacid])QILLKQERQKK[Aib]REQAETNKQILAQV-NH2; N-terminus assumed) came in with an EC50 in assay [1] of 0.87 nM. In assay [2], the EC50 is more than 100 nM and the Emax worked out at 5.4%.
In the same order, the values of `CC[C@H](C)[C@H](N)C(=O)N[C@H](C(=O)N[C@@H](CC(C)C)C(=O)N[C@@H](CO)C(=O)N[C@@H](CC(C)C)C(=O)N[C@@H](CC(=O)O)C(=O)N[C@@H](C(=O)N1CCC[C@H]1C(=O)N[C@H](C(=O)NCC(=O)N[C@@H](CC(C)C)C(=O)N[C@@H](CCCCNC(=O)COCCOCCNC(=O)COCCOCCNC(=O)CC[C@H](NC(=O)CC[C@H](NC(=O)CCCCCCCCCCCCCCC(=O)O)C(=O)O)C(=O)O)C(=O)N[C@@H](CCC(N)=O)C(=O)N[C@H](C(=O)N[C@@H](CC(C)C)C(=O)N[C@@H](CC(C)C)C(=O)N[C@@H](CCCCN)C(=O)N[C@@H](CCC(N)=O)C(=O)N[C@@H](CCC(=O)O)C(=O)N[C@@H](CCCNC(=N)N)C(=O)N[C@@H](CCC(N)=O)C(=O)N[C@@H](CCCCN)C(=O)N[C@@H](CCCCN)C(=O)NC(C)(C)C(=O)N[C@@H](CCCNC(=N)N)C(=O)N[C@@H](CCC(=O)O)C(=O)N[C@@H](CCC(N)=O)C(=O)N[C@@H](C)C(=O)N[C@@H](CCC(=O)O)C(=O)N[C@H](C(=O)N[C@@H](CC(N)=O)C(=O)N[C@@H](CCCCN)C(=O)N[C@@H](CCC(N)=O)C(=O)N[C@H](C(=O)N[C@@H](CC(C)C)C(=O)N[C@@H](C)C(=O)N[C@@H](CCC(N)=O)C(=O)N[C@H](C(N)=O)C(C)C)[C@@H](C)CC)[C@@H](C)O)[C@@H](C)CC)[C@@H](C)CC)C(C)C)C(C)C` [compound 203] (H-IVLSLD[dV]PIGLK([AEEA-AEEA-γGlu-γGlu-C16 diacid])QILLKQERQKK[Aib]REQAETNKQILAQV-NH2; N-terminus assumed) are 4.7 nM, more than 100 nM and 4.7%.
For `CCCCCCCCCCCCCCCC(=O)N[C@@H](CCC(=O)NCCCC[C@H](NC(=O)[C@H](CC(C)C)NC(=O)[C@H](CCCCN)NC(=O)[C@@H](NC(=O)[C@@H]1CCCN1C(=O)[C@H](NC(=O)[C@H](CC(=O)O)NC(=O)[C@H](CC(C)C)NC(=O)[C@H](CO)NC(=O)[C@H](CC(C)C)NC(=O)[C@@H](NC(=O)[C@@H](N)[C@@H](C)CC)C(C)C)C(C)C)[C@@H](C)CC)C(=O)N[C@@H](CCC(N)=O)C(=O)N[C@H](C(=O)N[C@@H](CC(C)C)C(=O)N[C@@H](CC(C)C)C(=O)N[C@@H](CCCCN)C(=O)N[C@@H](CCC(N)=O)C(=O)N[C@@H](CCC(=O)O)C(=O)N[C@@H](CCCNC(=N)N)C(=O)N[C@@H](CCC(N)=O)C(=O)N[C@@H](CCCCN)C(=O)NC(C)(C)C(=O)N[C@@H](CCC(N)=O)C(=O)N[C@@H](CCCNC(=N)N)C(=O)N[C@@H](CCC(=O)O)C(=O)N[C@@H](CCC(N)=O)C(=O)N[C@@H](C)C(=O)N[C@@H](CCC(=O)O)C(=O)N[C@@H](CCCCN)C(=O)N[C@@H](CC(N)=O)C(=O)N[C@@H](CCCCN)C(=O)N[C@@H](CCC(N)=O)C(=O)N[C@H](C(=O)N[C@@H](CC(C)C)C(=O)N[C@@H](C)C(=O)N[C@@H](CCC(N)=O)C(=O)N[C@H](C(N)=O)C(C)C)[C@@H](C)CC)[C@@H](C)CC)C(=O)O` [compound 204] (H-IVLSLD[dV]PIKLK([γGlu-Palmitoyl])QILLKQERQK[Aib]QREQAEKNKQILAQV-NH2), a half-maximal response in assay [1] (EC50) required 0.14 nM. The CRF1/CRF2 ratio in assay [2] worked out at 3.
Compound `CCCCCCCCCCCCCCCC(=O)N[C@@H](CCC(=O)NCCCC[C@H](NC(=O)[C@H](CC(C)C)NC(=O)CNC(=O)[C@@H](NC(=O)[C@@H]1CCCN1C(=O)[C@H](NC(=O)[C@H](CC(=O)O)NC(=O)[C@H](CC(C)C)NC(=O)[C@H](CO)NC(=O)[C@H](CC(C)C)NC(=O)[C@@H](NC(=O)[C@@H](N)[C@@H](C)CC)C(C)C)C(C)C)[C@@H](C)CC)C(=O)N[C@@H](CCC(N)=O)C(=O)N[C@H](C(=O)N[C@@H](CC(C)C)C(=O)N[C@@H](CC(C)C)C(=O)N[C@@H](CCCCN)C(=O)N[C@@H](CCC(N)=O)C(=O)N[C@@H](CCC(=O)O)C(=O)N[C@@H](CCCNC(=N)N)C(=O)N[C@@H](CCC(N)=O)C(=O)N[C@@H](CCCCN)C(=O)N[C@@H](CCCCN)C(=O)NC(C)(C)C(=O)N[C@@H](CCCNC(=N)N)C(=O)N[C@@H](CCC(=O)O)C(=O)N[C@@H](CCC(N)=O)C(=O)N[C@@H](C)C(=O)N[C@@H](CCC(=O)O)C(=O)N[C@H](C(=O)N[C@@H](CC(N)=O)C(=O)N[C@@H](CCCCN)C(=O)N[C@@H](CCCNC(=N)N)C(=O)N[C@H](C(=O)N[C@@H](CC(C)C)C(=O)N[C@@H](CCC(=O)O)C(=O)N[C@@H](CCCNC(=N)N)C(=O)N[C@H](C(N)=O)C(C)C)[C@@H](C)CC)[C@@H](C)O)[C@@H](C)CC)C(=O)O` [compound 207] (H-IVLSLD[dV]PIGLK([γGlu-Palmitoyl])QILLKQERQKK[Aib]REQAETNKRILERV-NH2; N-terminus assumed) showed an EC50 in assay [1] of 0.68 nM. The CRF1/CRF2 ratio in assay [2] amounted to 6.
On to `CCCCCCCCCCCCCCCC(=O)N[C@@H](CCC(=O)NCCCC[C@H](NC(=O)[C@H](CC(C)C)NC(=O)[C@H](CCCCN)NC(=O)[C@@H](NC(=O)[C@@H]1CCCN1C(=O)[C@H](NC(=O)[C@H](CC(=O)O)NC(=O)[C@H](CC(C)C)NC(=O)[C@H](CO)NC(=O)[C@H](CC(C)C)NC(=O)[C@@H](NC(=O)[C@@H](N)[C@@H](C)CC)C(C)C)C(C)C)[C@@H](C)CC)C(=O)N[C@@H](CCC(N)=O)C(=O)N[C@H](C(=O)N[C@@H](CC(C)C)C(=O)N[C@@H](CC(C)C)C(=O)N[C@@H](CCCCN)C(=O)N[C@@H](CCC(N)=O)C(=O)N[C@@H](CCC(=O)O)C(=O)N[C@@H](CCCNC(=N)N)C(=O)N[C@@H](CCC(N)=O)C(=O)N[C@@H](CCCCN)C(=O)NC(C)(C)C(=O)N[C@@H](CCC(N)=O)C(=O)N[C@@H](CCCNC(=N)N)C(=O)N[C@@H](CCC(N)=O)C(=O)N[C@@H](CCC(N)=O)C(=O)N[C@@H](C)C(=O)N[C@@H](CCC(=O)O)C(=O)N[C@@H](CCCCN)C(=O)N[C@@H](CC(N)=O)C(=O)N[C@@H](CCCCN)C(=O)N[C@@H](CCC(N)=O)C(=O)N[C@H](C(=O)N[C@@H](CC(C)C)C(=O)N[C@@H](C)C(=O)N[C@@H](CCC(N)=O)C(=O)N[C@H](C(N)=O)C(C)C)[C@@H](C)CC)[C@@H](C)CC)C(=O)O` [compound 208] (H-IVLSLD[dV]PIKLK([γGlu-Palmitoyl])QILLKQERQK[Aib]QRQQAEKNKQILAQV-NH2; N-terminus assumed), for which, in assay [1], the midpoint of the response, the EC50, lay at 0.9 nM. For the same compound, the CRF1/CRF2 ratio in assay [2] is 2.
